# Data taken from patent publication US20110230428A1, “CERTAIN KYNURENINE-3-MONOOXYGENASE INHIBITORS, PHARMACEUTICAL COMPOSITIONS, AND METHODS OF USE THEREOF” (priority 2008, published 2011).
# Target: T1, KMO mouse enzyme (Mus musculus, UniProt Q91WN4)
# T1 construct: KMO enzyme prepared at Evotec from mouse liver (4-6 weeks old) via mitochondria isolation; from tissue; host or cells: mouse liver (4-6 weeks old), isolated mitochondria
# Experiment: KMO mouse enzyme assay: L-Kynurenine hydroxylation to 3OH-KYN by LC/MS
# Format: biochemical
# Settings: compound at 10 μM; KMO from mouse liver mitochondria; read-out: INH.Mouse @ 10 μM
# Experimental: A method of monitoring L-Kynurenine (KYN) hydroxylation to form 3-Hydroxy-Kynurenine (3OH-KYN) by LC/MS is described. Product is quantified by multiple reaction monitoring (MRM method).
# • Compound: Stock concentrations: 10 mM in 100% DMSO • Enzyme: KMO enzyme prepared at Evotec from mouse liver (4-6 weeks old) via mitochondria isolation as described in the literature • Substrate: L-Kynurenine (Sigma: Cat# K3750, stock concentration: 10 mM in 100 mM potassium phosphate buffer, pH 7.4)
# • Buffer: 100 mM potassium phosphate, pH 7.4, 200 μM NADPH, 0.4 U/ml G6P-DH (Glucose 6-phosphate Dehydrogenase), 3 mM G6P (D-Glucose 6-phosphate) • Assay Volume: 40 μl • Plate Format: 384 well plate, transparent (Matrix) • Read-Out: product (3OH-KYN) quantification using product specific MRM • Reader: LC/MS/MS
# • prepare serial dilution (factor 3) of compound in 100% DMSO (top concentration=10 mM, 100% DMSO) • [8 points: 10 mM; 3.33 mM; 1.11 mM; 0.37 mM; 0.12 mM; 0.04 mM; 0.0137 mM; 0.0045 mM, 0.0015 mM] • prepare […] solution of each compound concentration (top concentration 300 μM, 3% DMSO) in assay buffer • [concentrations: 300 μM; 100 μM; 33.3 μM; 11.1 μM; 3.70 μM; 1.23 μM; 0.41 μM; 0.137 μM] • prepare substrate (10 mM) at concentration of 1 mM in assay buffer • assay mix: 4 μl compound/well of each concentration+24 μl assaybuffer/well+8 μl KMO mouse enzyme+4 μl 1 mM substrate (final concentration=100 μM) • [final compound top concentration: 30 μM; 0.3% DMSO] • [final compound bottom concentration: 0.0137 μM; 0.3% DMSO] • positive control: 4 μl 50 μM FCE28833 in assay buffer, 0.5% DMSO [final assay concentration=5 μM]+24 μl assaybuffer/well+8 μl KMO mouse enzyme+4 μl 1 mM substrate [final concentration=100 μM] • negative control: 28 μl assay buffer/well+8 μl KMO mouse enzyme+4 μl 1 mM substrate [final concentration=100 μM] • incubate 40 min at RT • add 40 μl/well 10% trichloro acetic acid in water to stop the assay and precipitate protein • centrifuge plate for 3 min at 4000 rpm • product detection by LC/MS (injection of 20 μl/well, 2 fold overfill of the 10 μl sample loop) Data analysis: IC50's are calculated using automated fitting algorithm (A+Analysis).
# Using procedures similar to those described herein, the following compounds were assayed for activity.
# T1 sequence (Q91WN4 whole entry): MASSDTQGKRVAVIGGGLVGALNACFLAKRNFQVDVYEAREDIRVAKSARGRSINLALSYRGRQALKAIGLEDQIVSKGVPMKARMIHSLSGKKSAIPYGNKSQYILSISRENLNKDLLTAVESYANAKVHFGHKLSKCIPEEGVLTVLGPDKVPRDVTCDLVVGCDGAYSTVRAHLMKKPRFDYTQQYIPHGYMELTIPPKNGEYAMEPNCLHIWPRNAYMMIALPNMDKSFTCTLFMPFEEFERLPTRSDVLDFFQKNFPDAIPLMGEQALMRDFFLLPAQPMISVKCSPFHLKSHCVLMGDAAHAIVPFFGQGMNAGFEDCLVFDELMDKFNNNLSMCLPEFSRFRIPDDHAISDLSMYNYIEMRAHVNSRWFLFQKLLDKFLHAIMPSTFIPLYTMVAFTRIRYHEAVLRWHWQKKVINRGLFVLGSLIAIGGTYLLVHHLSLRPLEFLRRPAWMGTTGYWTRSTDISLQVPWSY
row,SMILES,inhibition at 10 µM
1,"CO/N=C(\CCC(=O)N1CCOCC1)c1ccc(Cl)c(Cl)c1 [1-(3,4-Dichloro-phenyl)-4-morpholin-4-yl-butane-1,4-dione 1-(O-methyl-oxime)]",63.4%
2,"CON=C(CCC(=O)Nc1cncc(C)c1)c1ccc(Cl)c(Cl)c1 [4-(3,4-Dichloro-phenyl)-4-methoxyimino-N-(5-methyl-pyridin-3-yl)-butyramide]",102%
3,"CON=C(CCc1noc(C)n1)c1ccc(Cl)c(Cl)c1 (single isomer, unassigned) [1-(3,4-Dichloro-phenyl)-3-(5-methyl-[1,2,4]oxadiazol-3-yl)-propan-1-one O-methyl-oxime]",87.2%
4,"CNC(=O)CC/C(=N\OC)c1ccc(Cl)c(Cl)c1 [4-(3,4-Dichloro-phenyl)-4-methoxyimino-N-methyl-butyramide]",93.7%
5,"CO/N=C(\CCC(=O)N(C)C)c1ccc(Cl)c(Cl)c1 [4-(3,4-Dichloro-phenyl)-4-methoxyimino-N,N-dimethyl-butyramide]",64.3%
6,"COC(=O)CCC(=NOCCNC(=O)OC(C)(C)C)c1ccc(Cl)c(Cl)c1 [4-[2-tert-Butoxycarbonylamino-ethoxyimino]-4-(3,4-dichloro-phenyl)-butyric acid methyl ester]",56.4%
7,"CON=C(CCC(=O)Nc1ccc(C)nc1)c1ccc(Cl)c(Cl)c1 [4-(3,4-Dichloro-phenyl)-4-methoxyimino-N-(6-methyl-pyridin-3-yl)-butyramide]",82.9%
8,"CON=C(CCC(=O)Nc1ccncc1)c1ccc(Cl)c(Cl)c1 [4-(3,4-Dichloro-phenyl)-4-methoxyimino-N-pyridin-4-yl-butyramide]",76.5%
9,"CC(C)(C)OC(=O)NCCON=C(CCC(=O)O)c1ccc(Cl)c(Cl)c1 [4-[2-tert-Butoxycarbonylamino-ethoxyimino]-4-(3,4-dichloro-phenyl)-butyric acid]",61.9%
10,"CON=C(CCC(=O)NCc1cccnc1)c1ccc(Cl)c(Cl)c1 [4-(3,4-Dichloro-phenyl)-4-methoxyimino-N-pyridin-3-ylmethyl-butyramide]",77.1%
11,"CON=C(CCC(=O)NC1CCNC1)c1ccc(Cl)c(Cl)c1 (stereo not shown) [4-(3,4-Dichloro-phenyl)-4-methoxyimino-N-pyrrolidin-3-yl-butyramide]",74.3%
12,"CON=C(CCC(=O)Nc1ccc(C)nn1)c1ccc(Cl)c(Cl)c1 [4-(3,4-Dichloro-phenyl)-4-methoxyimino-N-(6-methyl-pyridazin-3-yl)-butyramide]",90.2%
13,"CO/N=C(\CCc1nn[nH]n1)c1ccc(Cl)c(Cl)c1 [1-(3,4-Dichloro-phenyl)-3-(2H-tetrazol-5-yl)-propan-1-one O-methyl-oxime]",96.4%
14,"CON=C(CCC(C)=O)c1ccc(Cl)c(Cl)c1 [1-(3,4-Dichloro-phenyl)-pentane-1,4-dione 1-(O-methyl-oxime)]",77.7%
15,"CON=C(CCC(=O)Nc1cncnc1)c1ccc(Cl)c(Cl)c1 [4-(3,4-Dichloro-phenyl)-4-methoxyimino-N-pyrimidin-5-yl-butyramide]",98.5%
16,"COC(=O)CCC(=NO)c1ccc(Cl)c(Cl)c1 [4-(3,4-Dichloro-phenyl)-4-hydroxyimino-butyric acid methyl ester]",99.4%

# Next, values leading:
row,inhibition at 10 µM,SMILES
1,102%,"CON=C(CCC(=O)N(C)OC)c1ccc(Cl)c(Cl)c1 [4-(3,4-Dichloro-phenyl)-N-methoxy-4-methoxyimino-N-methyl-butyramide]"
2,75.7%,"CON=C(CCC(=O)NCC(O)CO)c1ccc(Cl)c(Cl)c1 (stereo not shown) [4-(3,4-Dichloro-phenyl)-N-(2,3-dihydroxy-propyl)-4-methoxyimino-butyramide]"
3,94.9%,"CON=C(CCC(N)=O)c1ccc(Cl)c(Cl)c1 [4-(3,4-Dichloro-phenyl)-4-methoxyimino-butyramide]"
4,106%,"CO/N=C(\CCC(=O)OC)c1ccc(Cl)c(Cl)c1 [4-(3,4-Dichloro-phenyl)-4-methoxyimino-butyric acid methyl ester]"
5,95.7%,"CON=C(CCC(=O)NCCO)c1ccc(Cl)c(Cl)c1 [4-(3,4-Dichloro-phenyl)-N-(2-hydroxy-ethyl)-4-methoxyimino-butyramide]"
6,91.7%,"CON=C(CCC(=O)Nc1ccc(F)nc1)c1ccc(Cl)c(Cl)c1 [4-(3,4-Dichloro-phenyl)-N-(6-fluoro-pyridin-3-yl)-4-methoxyimino-butyramide]"
7,71.5%,"CON=C(CCCC#N)c1ccc(Cl)c(Cl)c1 [5-(3,4-Dichloro-phenyl)-5-methoxyimino-pentanenitrile]"
8,75.2%,"CO/N=C(\CCC(=O)NC1CCN(C(=O)OC(C)(C)C)CC1)c1ccc(Cl)c(Cl)c1 [4-[4-(3,4-Dichloro-phenyl)-4-methoxyimino-butyrylamino]-piperidine-1-carboxylic acid tert-butyl ester]"
9,94.3%,"CO/N=C(\CCC(=O)NC(C)C)c1ccc(Cl)c(Cl)c1 [4-(3,4-Dichloro-phenyl)-N-isopropyl-4-methoxyimino-butyramide]"
10,98.7%,"CO/N=C(\CCC(=O)O)c1cc(Cl)cc(Cl)c1 [4-(3,5-Dichloro-phenyl)-4-methoxyimino-butyric acid]"
11,61%,"CON=C(c1ccc(Cl)c(Cl)c1)C1C[C@@H]1C(=O)OC (stereo partly drawn) [(1S,2S)-trans-2-[(3,4-Dichloro-phenyl)-methoxyimino-methyl]-cyclopropanecarboxylic acid methyl ester]"
12,74.6%,"CON=C(CCC#N)c1ccc(Cl)c(Cl)c1 [4-(3,4-Dichloro-phenyl)-4-methoxyimino-butyronitrile]"
13,78.3%,"CON=C(CCCC(=O)O)c1ccc(Cl)c(Cl)c1 [5-(3,4-Dichloro-phenyl)-5-methoxyimino-pentanoic acid]"
14,61.2%,"CON=C(CCCC(=O)OC)c1ccc(Cl)c(Cl)c1 [5-(3,4-Dichloro-phenyl)-5-methoxyimino-pentanoic acid methyl ester]"
15,102%,"CON=C(CCC(=O)OC[C@H](O)[C@H]1OC(=O)C(O)=C1O)c1ccc(Cl)c(Cl)c1 [4-(3,4-Dichloro-phenyl)-4-methoxyimino-butyric acid (S)-2-((R)-3,4-dihydroxy-5-oxo-2,5-dihydro-furan-2-yl)-2-hydroxy-ethyl ester]"
16,106%,"CO/N=C(\CCC(=O)O)c1ccc(Cl)c(Cl)c1 [4-(3,4-Dichloro-phenyl)-4-methoxyimino-butyric acid]"
17,101%,"CO/N=C(\CCC(=O)Nc1ccon1)c1ccc(Cl)c(Cl)c1 [4-(3,4-Dichloro-phenyl)-N-isoxazol-3-yl-4-methoxyimino-butyramide]"
18,98.8%,"CON=C(CCC(=O)NCC(C)O)c1ccc(Cl)c(Cl)c1 (stereo not shown) [4-(3,4-Dichloro-phenyl)-N-(2-hydroxy-propyl)-4-methoxyimino-butyramide]"
